In publication PMC6445162, “Effects of NS2B-NS3 protease and furin inhibition on West Nile and Dengue virus replication” (Journal of Enzyme Inhibition and Medicinal Chemistry, 2017):
“And” between values parts separate entries of the source, which are not always exact repeats. Identical values can stand only once. Peptide text beside a SMILES is read from it.

Assays:
[1] = biological target: covalently linked WNV NS2B-NS3 protease construct (West Nile virus) (UniProt P06935); assay: enzyme inhibition kinetics (Ki from Dixon plots, fluorogenic substrate); WNV NS2B-NS3 construct ~4 nM in assay; substrate Phac-Leu-Lys-Lys-Arg-AMC 50, 100 and 200 µM (KM = 47.5 µM); 100 mM Tris pH 8.5, 20% glycerol, 0.01% Triton X-100; room temperature; Ki the average of at least two measurements
WNV NS2B-NS3 protease = biological target: T1, WNV NS2B-NS3 protease (West Nile virus, UniProt P06935); assay: Enzyme kinetic inhibition of WNV NS2B-NS3 protease construct (Dixon plot); format: biochemical; settings: for Ki: covalently linked WNV NS2B-NS3 construct, substrate Phac-Leu-Lys-Lys-Arg-AMC, Dixon plots, average of at least two measurements
T1 construct: WNV NS2B 40-amino acid cofactor together with the NS3 protease domain
Procedure: (§1) All measurements were performed at room temperature in black flat-bottom 96-well plates (Nunc, Langenselbold, Germany) using microplate readers (Tecan Safire^2, λex = 380 nm and λem = 460 nm, Tecan Group Ltd., Männedorf, Switzerland or Fluoroskan Ascent type 374, λex = 355 nm and λem = 460 nm; Thermo Fisher Scientific, Vantaa, Finland). The assays with the flavivirus protease constructs were performed with 125 μl buffer (100 mM Tris pH 8.5 containing 20% glycerol, 0.01% Triton X-100, and the inhibitor), 50 μl substrate solution, and were started by addition of 25 μl enzyme solution (total assay volume 200 μl).
For measurements with the covalently linked WNV NS2B-NS3 protease construct (∼4 nM in assay) the substrate Phac-Leu-Lys-Lys-Arg-AMC ×3 TFA (50 µM, 100 µM and 200 µM in assay, KM = 47.5 µM) was used, as described previously.
(§2) The DENV serotype 2 NS2B-NS3 protease construct was prepared from an identical clone as described by D’Arcy et al.[26] The purification of the protease was carried out in a buffer with high ion-strength and low pH value, in the absence of glycerol (20 mM Bis-Tris, 500 mM NaCl, pH 6.3), in order to prevent autolysis of the enzyme. Purification was performed by using a 5 ml HisTrapTM FF column (GE Healthcare) and subsequently, a HiLoad 16/60 SuperdexTM 75 column (GE Healthcare). The assays with the DENV-2 NS2B-NS3^pr° (∼39 nM in well) were performed with the substrate Phac-Lys-Arg-Arg-AMC ×3 TFA (125 µM, 62.5 µM and 31.25 µM in assay, KM = 60 µM). All Ki values were obtained from Dixon plots[27] and are the average of at least two measurements. Due to the weak potency of most compounds against the DENV-2 NS2B-NS3 protease construct, only the percentage of inhibition at a constant inhibitor concentration of 100 µM in the presence of 125 µM substrate was determined.

[2] = biological target: T2, DENV serotype 2 NS2B-NS3 protease (Dengue virus type 2, UniProt P14340); assay: Enzyme kinetic inhibition of DENV-2 NS2B-NS3 protease construct; format: biochemical, Dengue virus serotype 2; settings: for inhibition at 100 µM: 100 μM inhibitor in the presence of 125 μM substrate, read-out: % Inhib. (DENV)
T2 construct: The proteolytic activity of WNV and DENV is located in the N-terminal part of its NS3 protein; made in house
Procedure: as §1, §2

## 1-Adamantylacetic acid-Lys-Lys-Arg-NH2 (peptide)
[1]
  Ki: 13.8 µM

## 1-Adamantylglycine-Lys-Lys-Arg-NH2 (peptide)
[1]
  Ki: 70 µM

## 3,4-(Methylenedioxy)-Phac-Lys-Lys-Arg-NH2 (peptide)
[1]
  Ki: 0.68 µM

## 3,4-Cl2-Phac-Lys-Lys-Arg-Gly-NH2 (peptide)
[1]
  Ki: 1.8 µM

## 3,4-Cl2-Phac-Lys-Lys-Arg-NH2 (peptide)
[1]
  Ki: 1.13 µM

## 3-AMe-Phac-Lys-Lys-Arg-NH2 (peptide)
[1]
  Ki: 0.36 µM

## 3-GMe-Phac-Lys-Lys-Arg-NH2 (peptide)
[1]
  Ki: 0.18 µM

## 3-NH2-Phac-Lys-Lys-Arg-NH2 (peptide)
[1]
  Ki: 1.2 µM

## 4-AMe-Phac-Lys-Lys-Arg-NH2 (peptide)
[1]
  Ki: 0.38 µM

## 4-GMe-Phac-Lys-Lys-GCMA
WNV NS2B-NS3 protease
  Ki: 0.23 µM
[2]; DENV-2 NS2B-NS3 construct, substrate Phac-Lys-Arg-Arg-AMC, Dixon plots
  Ki: 67 µM

## 4-OH-Phac-Lys-Lys-Arg-NH2 (peptide)
[1]
  Ki: 0.54 µM

## 4-Phenyl-Phac-Lys-Lys-Arg-NH2 (peptide)
[1]
  Ki: 0.53 µM

## N=C(N)NC1CCC(CNC(=O)C(CCCCN)NC(=O)C(Cc2ccc(CN)cc2)NC(=O)Cc2ccccc2)CC1 (centres unmarked) [inhibitor 3, Phac-Phe(4-AMe)-Lys-GCMA]
WNV NS2B-NS3 protease; compared with reference inhibitor 2
  fold reduced potency against WNV protease: 4 fold
WNV NS2B-NS3 protease
  Ki: 4.7 µM and 4.71 µM
[2]
  inhibition at 100 µM: 12.4%

## N=C(N)NCc1ccc(CC(NC(=O)Cc2ccccc2)C(=O)NC(CCCCN)C(=O)NCC2CCC(NC(=N)N)CC2)cc1 (centres unmarked) [inhibitor 9]
WNV NS2B-NS3 protease
  Ki: 44 µM

## N=C(N)NCCC[C@H](NC(=O)[C@H](CCCCN)NC(=O)[C@H](CCCCN)NC(=O)Cc1ccccc1)C(=O)NCC(=O)NCC(N)=O [inhibitor 17] (HELM PEPTIDE1{[O=C(Cc1ccccc1)[*:2]].K.K.R.G.G.[am]}$$$$V2.0)
WNV NS2B-NS3 protease
  Ki: 1.56 µM
[2]
  inhibition at 100 µM: 35.1%

## N=C(N)NCCC[C@H](NC(=O)[C@H](CCCCN)NC(=O)[C@H](CCCCN)NC(=O)Cc1ccccc1)C(=O)NCC(N)=O [inhibitor 18] (HELM PEPTIDE1{[O=C(Cc1ccccc1)[*:2]].K.K.R.G.[am]}$$$$V2.0)
WNV NS2B-NS3 protease
  Ki: 2.56 µM
[2]
  inhibition at 100 µM: 30.7%

## C[C@H](NC(=O)[C@H](CCCNC(=N)N)NC(=O)[C@H](CCCCN)NC(=O)[C@H](CCCCN)NC(=O)Cc1ccccc1)C(N)=O [inhibitor 19] (HELM PEPTIDE1{[O=C(Cc1ccccc1)[*:2]].K.K.R.A.[am]}$$$$V2.0)
WNV NS2B-NS3 protease
  Ki: 25 µM
[2]
  inhibition at 100 µM: 5.6%

## C[C@@H](NC(=O)[C@H](CCCNC(=N)N)NC(=O)[C@H](CCCCN)NC(=O)[C@H](CCCCN)NC(=O)Cc1ccccc1)C(N)=O [inhibitor 20] (HELM PEPTIDE1{[O=C(Cc1ccccc1)[*:2]].K.K.R.[dA].[am]}$$$$V2.0)
WNV NS2B-NS3 protease
  Ki: 75 µM
[2]
  inhibition at 100 µM: 12%

## CC(C)[C@H](NC(=O)[C@H](CCCNC(=N)N)NC(=O)[C@H](CCCCN)NC(=O)[C@H](CCCCN)NC(=O)Cc1ccccc1)C(N)=O [inhibitor 21] (HELM PEPTIDE1{[O=C(Cc1ccccc1)[*:2]].K.K.R.V.[am]}$$$$V2.0)
WNV NS2B-NS3 protease
  Ki: 105 µM
[2]
  inhibition at 100 µM: 12%

## CC(C)(C)[C@H](NC(=O)[C@H](CCCNC(=N)N)NC(=O)[C@H](CCCCN)NC(=O)[C@H](CCCCN)NC(=O)Cc1ccccc1)C(N)=O [inhibitor 22] (HELM PEPTIDE1{[O=C(Cc1ccccc1)[*:2]].K.K.R.[CC(C)(C)[C@H](N[*:1])C(=O)[*:2]].[am]}$$$$V2.0)
WNV NS2B-NS3 protease
  Ki: 140 µM
[2]
  inhibition at 100 µM: 6.4%

## N=C(N)NCCC[C@H](NC(=O)[C@H](CCCCN)NC(=O)[C@H](CCCCN)NC(=O)Cc1ccccc1)C(=O)N1CCC[C@H]1C(N)=O [inhibitor 23] (HELM PEPTIDE1{[O=C(Cc1ccccc1)[*:2]].K.K.R.P.[am]}$$$$V2.0)
WNV NS2B-NS3 protease
  Ki: 200 µM
[2]
  inhibition at 100 µM: 5.2%

## CN(CC(N)=O)C(=O)[C@H](CCCNC(=N)N)NC(=O)[C@H](CCCCN)NC(=O)[C@H](CCCCN)NC(=O)Cc1ccccc1 [inhibitor 24] (HELM PEPTIDE1{[O=C(Cc1ccccc1)[*:2]].K.K.R.[Sar].[am]}$$$$V2.0)
WNV NS2B-NS3 protease
  Ki: 50 µM
[2]
  inhibition at 100 µM: 3.2%

## N=C(N)NCCC[C@H](NC(=O)[C@H](CCCCN)NC(=O)[C@H](CCCCN)NC(=O)Cc1ccccc1)C(=O)NCCCC(N)=O [inhibitor 25] (HELM PEPTIDE1{[O=C(Cc1ccccc1)[*:2]].K.K.R.[O=C(CCCN[*:1])[*:2]].[am]}$$$$V2.0)
WNV NS2B-NS3 protease
  Ki: 15 µM
[2]
  inhibition at 100 µM: 26.3%

## N=C(N)NCCC[C@H](NC(=O)[C@H](CCCCN)NC(=O)[C@H](CCCCN)NC(=O)Cc1ccccc1)C(=O)NCCCCCC(N)=O [inhibitor 26] (HELM PEPTIDE1{[O=C(Cc1ccccc1)[*:2]].K.K.R.[O=C(CCCCCN[*:1])[*:2]].[am]}$$$$V2.0)
WNV NS2B-NS3 protease
  Ki: 17 µM

## N=C(N)NCCC[C@H](NC(=O)[C@H](CCCCN)NC(=O)[C@H](CCCCN)NC(=O)Cc1ccccc1)C(N)=O [inhibitor 27] (HELM PEPTIDE1{[O=C(Cc1ccccc1)[*:2]].K.K.R.[am]}$$$$V2.0)
WNV NS2B-NS3 protease
  Ki: 2.47 µM
[2]
  inhibition at 100 µM: 20.8%

## N=C(N)NCCC[C@H](NC(=O)[C@H](CCCCN)NC(=O)[C@H](CCCCN)NC(=O)Cc1ccccc1)C(=O)O [inhibitor 28, Phac-Lys-Lys-Arg-OH] (HELM PEPTIDE1{[O=C(Cc1ccccc1)[*:2]].K.K.R}$$$$V2.0)
WNV NS2B-NS3 protease
  Ki: 27 µM

## N=C(N)NCCC[C@H](NC(=O)[C@H](CCCCN)NC(=O)[C@H](CCCCN)NC(=O)Cc1ccc(Cl)c(Cl)c1)C(N)=O [inhibitor 29]
WNV NS2B-NS3 protease
  Ki: 1.13 µM
[2]
  inhibition at 100 µM: 25.1%

## N=C(N)NCCC[C@H](NC(=O)[C@H](CCCCN)NC(=O)[C@H](CCCCN)NC(=O)Cc1ccc(Cl)c(Cl)c1)C(=O)NCC(N)=O [inhibitor 30] (HELM PEPTIDE1{[O=C(Cc1ccc(Cl)c(Cl)c1)[*:2]].K.K.R.G.[am]}$$$$V2.0)
WNV NS2B-NS3 protease
  Ki: 1.8 µM
[2]
  inhibition at 100 µM: 45%

## N=C(N)NCCC[C@H](NC(=O)[C@H](CCCCN)NC(=O)[C@H](CCCCN)NC(=O)Cc1cccc(N)c1)C(N)=O [inhibitor 31]
WNV NS2B-NS3 protease
  Ki: 1.2 µM
[2]
  inhibition at 100 µM: 27.5%

## N=C(N)NCCC[C@H](NC(=O)[C@H](CCCCN)NC(=O)[C@H](CCCCN)NC(=O)Cc1ccc2c(c1)OCO2)C(N)=O [inhibitor 32]
WNV NS2B-NS3 protease
  Ki: 0.68 µM
[2]
  inhibition at 100 µM: 19.9%

## N=C(N)NCCC[C@H](NC(=O)[C@H](CCCCN)NC(=O)[C@H](CCCCN)NC(=O)Cc1ccc(O)cc1)C(N)=O [inhibitor 33]
WNV NS2B-NS3 protease
  Ki: 0.54 µM
[2]
  inhibition at 100 µM: 27.5%

## N=C(N)NCCC[C@H](NC(=O)[C@H](CCCCN)NC(=O)[C@H](CCCCN)NC(=O)C(N)C1CCCCC1)C(N)=O (some centres unmarked) [inhibitor 42] (HELM PEPTIDE1{[NC(C(=O)[*:2])C1CCCCC1].K.K.R.[am]}$$$$V2.0)
[2]
  inhibition at 100 µM: 31.7%

## AC-D/L-α-phenylglycine-Lys-Lys-Arg-NH2 (peptide)
[1]
  Ki: 4.18 µM

## Cyclohexylacetic acid-Lys-Lys-Arg-NH2 (peptide)
[1]
  Ki: 4.8 µM

## D/L-α-phenylglycine-Lys-Lys-Arg-NH2 (peptide)
[1]
  Ki: 3.6 µM

## Phac-Lys-Lys-Arg-Aca-NH2 (peptide)
[1]
  Ki: 17 µM

## Phac-Lys-Lys-Arg-Ala-NH2 (peptide)
[1]
  Ki: 25 µM

## Phac-Lys-Lys-Arg-DAla-NH2 (peptide)
[1]
  Ki: 75 µM

## Phac-Lys-Lys-Arg-Gaba-NH2 (peptide)
[1]
  Ki: 15 µM

## Phac-Lys-Lys-Arg-Gly-NH2 (peptide)
[1]
  Ki: 2.56 µM

## Phac-Lys-Lys-Arg-NH2 (peptide)
[1]
  Ki: 2.47 µM

## Phac-Lys-Lys-Arg-Pro-NH2 (peptide)
[1]
  Ki: 200 µM

## Phac-Lys-Lys-Arg-Sar-NH2 (peptide)
[1]
  Ki: 50 µM

## Phac-Lys-Lys-Arg-Tle-NH2 (peptide)
[1]
  Ki: 140 µM

## Phac-Lys-Lys-Arg-Val-NH2 (peptide)
[1]
  Ki: 105 µM

## α-Cyclohexylglycine-Lys-Lys-Arg-NH2 (peptide)
[1]
  Ki: 26.3 µM

B1: Phac-Lys-Lys-Arg-Gly-Gly-NH2 (peptide)
peptide: KKRGG
HELM: PEPTIDE1{[O=C(Cc1ccccc1)[*:2]].K.K.R.G.G.[am]}$$$$V2.0
SMILES: N=C(N)NCCC[C@H](NC(=O)[C@H](CCCCN)NC(=O)[C@H](CCCCN)NC(=O)Cc1ccccc1)C(=O)NCC(=O)NCC(N)=O
[1]
  Ki: 1.56 µM
